Test results reported in patent publication US20220265772A1, “USES OF DAN FAMILY BMP ANTAGONISTS FOR INHIBITING OCULAR NEOVASCULARIZATION AND TREATING OCULAR CONDITIONS” (9636137 Canada Inc., priority 2019, published 2022).

Assays:
Wnt signaling = experiment: Canonical Wnt signaling in HUVECs (immunoblotting, β-catenin immunofluorescence); type: cell-based, human
Protocol: FIG. 12 is a panel with a schematic, pictures showing that Dand5 reduces canonical Wnt signaling in HUVECs. HUVECs were plated to confluence and received a 2 h scratch in the presence or absence of Dand5 ([…]) or IWR1 (3 μM). β-catenin (green) localization was examined by immunofluorescence with phalloidin and DAPI (nuclei) to identify the cell boundaries and nucleus. […] Scale bars, […]).
Cells were washed with cold PBS and extracted in Laemmli's buffer, followed by sonication. Samples were run on SDS-PAGE gels and transferred onto nitrocellulose membranes. Membranes were blocked with 5% Bovine Serum Albumin (BSA) and probed with primary antibodies overnight at 4° C.: beta-Catenin (Cell Signaling Technology), phospho-beta-catenin (Cell Signaling Technology), Axin2 (Cell Signaling Technology), beta-Actin (Santa Cruz Technologies). HRP-conjugated secondary antibodies (Vector Laboratories) were used to detect primary antibodies.
We next evaluated the molecular mechanisms underlying the effects of DAND5 on endothelial cells. […] Wnt signaling regulates fundamental aspects of vascular development, including cell fate specification, proliferation and survival. […] HUVECs were treated for up to 24 hours with DAND5 or IWR-1, an inhibitor of Wnt canonical signaling. Protein extracts were harvested and subjected to immunoblotting against downstream effectors of Wnt signaling. […] The levels of β-catenin at different subcellular localizations are regulated by a variety of processes including site-specific phosphorylation of β-catenin. In the absence of an active Wnt signaling, β-catenin localization at cellular junctions is reduced and cytoplasmic β-catenin associates with the destruction complex (6).

HUVECs = experiment: Free radicals / ROS in HUVECs (DCFDA, MitoSoxRed); type: cell-based, human; details: HUVECs treated with DAND5 plus NAC
Protocol: FIG. 8 is a panel with graphs and pictures showing that Dand5 induces mitochondrial oxidative stress and alters ATP levels in HUVECs. FIG. 8A: HUVEC cells were treated with Dand5 in the presence or not of N-acetylcysteine (NAC) for up to 48 hours. Cells were then incubated with H2DCFDA. Hydrogen peroxide treated cells (H2O2) were included as a positive control. Fluorescence was measured at Ex: 485 nm and Em: 535 nm in a plate reader. Relative Fluorescence Units (RFU) were generated by normalizing the reading of each well to Hoescht staining (n=3,*p<0.05 **p<0.001). FIG. 8B: HUVEC cells were treated with Dand5 in for up to 48 hours. Cells were incubated with MitoSox Red. 3-nitro-proprionic acid (3-NP) treated cells were also examined as a positive control. Fluorescence was measured at Ex: 544 nm and Em: 590 nm. Relative Fluorescence Units (RFU) were generated by normalizing the reading of each well to Hoescht staining (n=3,*p<0.05). FIG. 8C: Primary culture of choroidal sprouts were treated with Dand5 in the absence or presence of NAC. FIG. 8D: Quantification of sprouting area by Image J. FIG. 8E: The ratio of NAD+ to NADH in whole cell extracts was determined using an Alcohol Dehydrogenase/Malate Dehydrogenase enzymatic cycling assay. Cells treated to hypoxic conditions (4% O2 for 3 hours) were included as a positive control (n=3,*p<0.05, **p<0.01). Likewise, glucose uptake was reduced in Dand5-treated HUVECs after 1 hour, while lactate levels were increased (lower panel). FIG. 8F: ATP levels were reduced in HUVECs exposed to Dand5 at 1, 6 and 24 hours (n=3,*p=0.05).
We exposed or not HUVECs to recombinant DAND5 and measured the concentration of free radicals using DCFDA and MitoSoxRed™. […] To further test this, we measure the NAD+/NADH ratio in cells treated or not with DAND5. […] Likewise, glucose uptake was reduced and lactate levels were increased in DAND5-treated HUVECs after 1 h (FIG. 8E, lower panel).

mouse choroidal explants = experiment: Choroidal explant sprouting in culture; type: cell-based; details: mouse choroidal explants, DAND5 plus NAC
Protocol: FIG. 1 is a panel with pictures, bar graphs, and graphs showing that Dand5 reduces VEGF-mediated sprouting angiogenesis in cultured endothelial cells. FIG. 1A: HUVECs grown in a fibrinogen gel were treated with VEGF to induce tube formation in the presence or absence of Dand5. […] FIG. 1B: HUVECs were plated to confluency and scratched to stimulate a wound in the presence or absence of Dand5. Scale bar, 100 μm. FIG. 1C: Quantification of tube formation in FIG. 1A n=3, *p<0.05, **p<0.01). FIG. 1E: Choroids were isolated from wild-type mice and cultured in vitro in the absence or presence of Dand5. […] FIG. 1F: Quantification of sprouting areas in choroidal sprouts (n=3, ***p<0.0001). […] FIG. 1H: HUVECs were cultured in the presence or absence of Dand5 and analyzed by immunofluorescence using antibodies against phospho-Histone 3 (PH3), a marker of cellular mitosis, and phalloidin and DAPI (nuclei). […] FIG. 1I: Quantification immunofluorescent staining of phospho-histone 3 positive cells. […] FIG. 1K: Quantification of immunofluorescent staining of cleaved caspase 3 (n=2, n.s.).
To evaluate the cellular mechanisms underlying the inhibitory effects of DAND5 on endothelial cells sprouting, we assessed the effects of DAND5 on endothelial cell migration and proliferation. […]
We exposed or not HUVECs to recombinant DAND5 and measured the concentration of free radicals using DCFDA and MitoSoxRed™. […]

geographic atrophy (GA) = details: in vivo; cited from earlier work
Wnt-induced angiogenesis = experiment: Wnt1 and DAND5 co-injection during retinal vascular development (P1 to P5); type: in vivo, mouse
Protocol: FIG. 13 is a panel with pictures and graphs showing that Dand5 opposes Wnt1-mediated hypervascularization during retinal vascular development. FIG. 13A: Schematic representation of experimental design. C57B6 pups were injected at P1 with PBS, Dand5 (60 ng/mL), Wnt1, or Wnt1 and Dand5 together at various molar ratios (1N, 5N and 10N). FIG. 13B: Representative images of retinas treated with PBS, Dand5 (1N) or Wnt1 (1N). FIG. 13C: Representative images of retinas treated with PBS or with Wnt1 (5N and 10N) alone or in combination with Danb5. Dand5 Flatmounts retinas were stained with Isolectin B4 to visualize the vasculature. FIG. 13D: Quantification of vascular branches in treated eyes. […] To address the antagonism of DAND5 on Wnt-induced angiogenesis, retinas were injected with recombinant DAND5 (60 ng) with increasing concentrations of Wnt1 (0, 1, 5 or 10× molar ratio) at P1 and retinas were harvested at P5 (FIG. 13A).

[1] = HUVECs treated for up to 24 hours, immunoblotting

For `O=C(Nc1cccc2cccnc12)c1ccc(N2C(=O)[C@@H]3[C@H](C2=O)[C@@H]2C=C[C@H]3C2)cc1` [IWR-1, reference compound], the “levels of Axin2” value (Wnt signaling; [1]) was “increased levels of Axin2”, the “levels of phosphorylated beta-catenin” value (Wnt signaling; [1]) was “increased levels of phosphorylated beta-catenin” and the “levels of total beta-catenin” value (Wnt signaling; [1]) was “decreased levels of total beta-catenin”. For the same molecule, the “cytoplasmic β-catenin” value (Wnt signaling; confluent HUVECs, 2 h scratch, Dand5 60n/mL or IWR1 3 μM) was “increased cytoplasmic β-catenin”.

With `CC(=O)N[C@@H](CS)C(=O)O` [NAC, N-acetyl cystein, reference compound] the “reversal of DAND5-induced free radical elevation” value (HUVECs) was “could be overcome by exposing cells to N-acetyl cystein (NAC)” and the “growth of DAND5-treated choroidal explants when also treated with NAC” value (mouse choroidal explants) was “partially rescued”.

In the case of bevacizumab: VEGF inhibitor, the “risk of geographic atrophy (GA) progression” value (geographic atrophy (GA)) is given as “increased risks of geographic atrophy (GA) progression”.

For ranibizumab: VEGF inhibitor, the “risk of geographic atrophy (GA) progression” value (geographic atrophy (GA)) is listed as “increased risks of geographic atrophy (GA) progression”.

B1: Wnt1: Wnt1 injected into mouse retinas, alone or with DAND5, at increasing molar ratios (protein, UniProt P04426 28-370, looked up)
Proto-oncogene Wnt-1: ANSSGRWWGIVNIASSTNLLTDSKSLQLVLEPSLQLLSRKQRRLIRQNPGILHSVSGGLQSAVRECKWQFRNRRWNCPTAPGPHLFGKIVNRGCRETAFIFAITSAGVTHSVARSCSEGSIESCTCDYRRRGPGGPDWHWGGCSDNIDFGRLFGREFVDSGEKGRDLRFLMNLHNNEAGRTTVFSEMRQECKCHGMSGSCTVRTCWMRLPTLRAVGDVLRDRFDGASRVLYGNRGSNRASRAELLRLEPEDPAHKPPSPHDLVYFEKSPNFCTYSGRLGTAGTAGRACNSSSPALDGCELLCCGRGHRTRTQRVTERCNCTFHWCCHVSCRNCTHTRVLHECL
With B1 the retinal vascular density (Wnt-induced angiogenesis; Wnt1 injected at P1, retinas at P5, IsoB4 staining) was “retinal vascular density was increased”, the “retinal vascularization at 16.6 and 33.3 pmoles” value (Wnt-induced angiogenesis; Wnt1 injections of 16.6 and 33.3 pmoles, P1 to P5) was “significant hypervascularization” and the “rescue of the inhibitory effects of DAND5 on retinal angiogenesis” value (Wnt-induced angiogenesis; concomitant injection of DAND5 (60 ng) with Wnt1 (10 molar ratio)) was “partially rescued the inhibitory effects of DAND5 on retinal angiogenesis”. The “mutual antagonism on vascular branches” value (Wnt-induced angiogenesis; quantification of vascular branches in treated eyes) was “mutually antagonist activities”.
